These results are taken from patent publication US20210212984A1, “FORMULATION FOR PAIN MANAGEMENT” (Zyus Life Sciences Inc., priority 2019, published 2021).

“And” between values parts separate entries of the source, which are not always exact repeats. Equal entries are not always repeated. Where two headings read alike, the source gives them in different places.

As a reminder, the Ki is a measure of affinity in units of concentration, obtained from inhibition or displacement. A word on the Emax: it is the size of the effect at its maximum, as opposed to the concentration needed. In general, EC50 refers to the concentration needed to bring the measured effect to its halfway point. Broadly, the IC50 is the concentration that gives 50% inhibition.

One assay concerns the target CB1 receptors (Homo sapiens, UniProt P21554). To be noted: Shinjyo N 2013; cited from earlier work.
In the next assay the target is CB2 receptors (Homo sapiens, UniProt P34972). To be noted: Shinjyo N 2013; cited from earlier work.
Chain of CB2 receptors (P34972 whole entry): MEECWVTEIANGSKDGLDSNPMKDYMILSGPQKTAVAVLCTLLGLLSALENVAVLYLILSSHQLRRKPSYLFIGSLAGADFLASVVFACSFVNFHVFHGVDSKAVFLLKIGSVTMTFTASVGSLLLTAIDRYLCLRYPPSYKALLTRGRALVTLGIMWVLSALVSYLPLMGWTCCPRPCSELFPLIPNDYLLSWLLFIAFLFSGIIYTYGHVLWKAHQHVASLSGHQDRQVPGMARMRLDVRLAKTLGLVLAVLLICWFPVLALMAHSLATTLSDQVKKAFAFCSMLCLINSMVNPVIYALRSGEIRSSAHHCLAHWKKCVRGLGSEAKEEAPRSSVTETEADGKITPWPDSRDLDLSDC
A further assay has as its target T1, human TRPA1 channel (Homo sapiens, UniProt O75762).
T1 construct: expressed in transfected cells; host or cells: CHO cells
Briefly: ScreenPatch assay (IonWorks Barracuda), agonist mode, TRPA1 expressed in CHO cells. The format is cell-based. To be noted: for EC50: read-out: EC50, CBC CRC. As to the method: Formulations for pain management were tested for effects on the human TRPA1 channel, expressed in mammalian cells using the ScreenPatch® assay (IonWorks™ Barracuda Based Assay): agonist mode. The data presented confirming a synergistic effect of cannabinoids (CBD:THC:CBC) at the ion channel level.
Test Articles. The test articles, also referenced herein as test formulations, were evaluated in an 8-point concentration-response format (4 replicate wells/concentration, Table 4A & Table 4B). The test articles were dissolved and initially serially diluted in dimethyl sulfoxide (DMSO). The final dilution was made in extracellular solution. The final DMSO concentration was 0.6% (v/v).
Positive Control Treatment Groups. Stock solutions of positive control articles were prepared in batches, aliquoted for individual use. The positive control test solutions were prepared fresh on the day of experiment. The final DMSO concentration was 0.6% (v/v). […] Reference antagonist, ruthenium red (0-10 μM), was used for both TRPA1.
Test System: TRPA1 ionotropic receptors expressed in CHO cells.
Test Platform: Ionworks Barracuda™
Electrophysiological Procedures. Intracellular solution (mM): 50 mM CsCl, 90 mM CsF, 2 mM MgCl2, 5 mM EGTA, 10 mM HEPES. Adjusted to pH 7.2 with CsOH. This solution was prepared in batches and stored at room temperature. In preparation for a recording session, the intracellular solution was loaded into the intracellular compartment of the PPC planar electrode.
Extracellular solution, HB-PS (composition in mM): NaCl, 137; KCl, 1.0; MgCl2, 2; CaCl2, 2; HEPES, 10; Glucose, 10; pH adjusted to 7.4 with NaOH (refrigerated until use). Holding potential: −70 mV, potential during agonist/antagonist application: −70 mV.
Recording procedure. Extracellular buffer was loaded into the PPC plate wells (11 μL per well). Cell suspension was pipetted into the wells (9 μL per well) of the PPC planar electrode.
Whole-cell recording configuration was established via patch perforation with membrane currents recorded by on-board patch clamp amplifiers.
Single application (scan) protocol was used.
Test Article Administration. The application consisted of the addition of 20 μL of 2× concentrated test article solution at 10 μL/s (2 second total application time).
TRPA1 Positive Control—Agonist.
Positive Control—Antagonist. 0-10 μM Ruthenium Red (8 concentrations, 4 replicates, half log scale).
In general terms: Patch clamp records ionic current or voltage across a cell membrane.

Setting [1] is: CHO, CRC of the article alone, % of 3000 μM Mustard Oil, read-out: EMAX.
[2] abbreviates: CRC of the article alone, % of 3000 μM Mustard Oil.
Where [3] appears, read: in presence of 0.1 μM CBD + THC.
The mark [4] stands for this setting: in presence of 0.3 μM CBD + THC.

T1 sequence (O75762 whole entry): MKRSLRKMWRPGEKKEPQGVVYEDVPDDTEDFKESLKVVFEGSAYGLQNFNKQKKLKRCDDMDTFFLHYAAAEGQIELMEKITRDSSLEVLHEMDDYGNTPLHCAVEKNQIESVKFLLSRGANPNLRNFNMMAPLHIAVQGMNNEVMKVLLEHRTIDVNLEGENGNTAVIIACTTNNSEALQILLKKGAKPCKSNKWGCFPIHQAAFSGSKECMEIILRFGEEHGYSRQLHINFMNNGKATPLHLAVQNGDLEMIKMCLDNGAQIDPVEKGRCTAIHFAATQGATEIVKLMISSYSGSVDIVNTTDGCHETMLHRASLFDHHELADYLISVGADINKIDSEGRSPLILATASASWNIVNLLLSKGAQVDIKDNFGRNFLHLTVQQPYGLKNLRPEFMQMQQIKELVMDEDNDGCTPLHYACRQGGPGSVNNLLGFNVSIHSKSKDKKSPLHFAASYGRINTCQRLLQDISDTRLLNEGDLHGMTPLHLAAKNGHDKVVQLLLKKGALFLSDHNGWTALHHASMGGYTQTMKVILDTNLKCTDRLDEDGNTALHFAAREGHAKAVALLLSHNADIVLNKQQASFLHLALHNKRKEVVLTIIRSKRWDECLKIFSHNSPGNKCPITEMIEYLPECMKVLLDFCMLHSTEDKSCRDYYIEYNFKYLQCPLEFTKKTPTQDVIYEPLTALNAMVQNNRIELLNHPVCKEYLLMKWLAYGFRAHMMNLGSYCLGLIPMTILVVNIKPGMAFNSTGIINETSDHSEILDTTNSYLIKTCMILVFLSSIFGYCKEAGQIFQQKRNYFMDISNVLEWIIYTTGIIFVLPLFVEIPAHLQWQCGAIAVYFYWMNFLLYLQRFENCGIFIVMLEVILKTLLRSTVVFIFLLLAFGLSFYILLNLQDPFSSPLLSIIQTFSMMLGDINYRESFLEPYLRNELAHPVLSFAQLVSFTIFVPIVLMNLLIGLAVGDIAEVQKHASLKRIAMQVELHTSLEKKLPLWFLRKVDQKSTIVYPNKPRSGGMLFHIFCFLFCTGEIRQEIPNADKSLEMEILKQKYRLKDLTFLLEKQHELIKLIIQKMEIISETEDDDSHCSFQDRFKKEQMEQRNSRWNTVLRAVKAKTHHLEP
Chain of CB1 receptors (P21554 whole entry): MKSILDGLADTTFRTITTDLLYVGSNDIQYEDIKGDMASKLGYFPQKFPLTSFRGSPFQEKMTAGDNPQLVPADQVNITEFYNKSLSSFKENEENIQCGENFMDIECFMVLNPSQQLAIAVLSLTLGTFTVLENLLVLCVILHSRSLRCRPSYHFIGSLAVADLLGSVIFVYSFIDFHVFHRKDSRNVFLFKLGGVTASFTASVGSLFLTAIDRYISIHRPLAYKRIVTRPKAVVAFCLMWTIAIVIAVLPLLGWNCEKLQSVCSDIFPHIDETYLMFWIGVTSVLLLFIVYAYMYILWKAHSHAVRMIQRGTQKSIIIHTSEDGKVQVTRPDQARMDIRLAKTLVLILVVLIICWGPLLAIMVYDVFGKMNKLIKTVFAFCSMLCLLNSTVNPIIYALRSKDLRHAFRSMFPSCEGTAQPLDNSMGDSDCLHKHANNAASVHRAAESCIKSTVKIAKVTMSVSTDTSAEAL

Regarding `CCCCCc1cc(O)c2c(c1)OC(C)(CCC=C(C)C)C=C2` (stereo not shown) [CBC, cannabichromene], at CB1 receptors, the “concentrations at which it binds to CB1 receptors” value is on record as “higher than 1 micromolar”. On CB2 receptors, the Ki was around 0.1 µM. The “Agonist activity at TRPA1 receptors (in words)” value at human TRPA1 channel is listed as “weak partial agonist activity”. In addition, the Emax on human TRPA1 channel (setting [1]) was around 10%; on human TRPA1 channel (CHO, at near threshold activation by CBD+THC mixture (1 μM each), n=4, read-out: Efficacy (EMAX) of CBC), 16.2 ± 1.3%; on human TRPA1 channel (CHO, in presence of 0.1 μM CBD + THC, % of 3000 μM Mustard Oil, read-out: EMAX, CBC CRC) it was 10.1%; on human TRPA1 channel (CHO, in presence of 0.3 μM CBD + THC, % of 3000 μM Mustard Oil, read-out: EMAX, CBC CRC), 13.1%; on human TRPA1 channel (CHO, in presence of 1 μM CBD + THC, % of 3000 μM Mustard Oil, read-out: EMAX, CBC CRC), 17.1%; on human TRPA1 channel (CHO, in presence of 3 μM CBD + THC, % of 3000 μM Mustard Oil, read-out: EMAX, CBC CRC), 30.7%. For the same molecule, the maximum response (Emax) was 53.2% on human TRPA1 channel (CHO, in presence of 10 μM CBD + THC, % of 3000 μM Mustard Oil, read-out: EMAX, CBC CRC); 60.8% at human TRPA1 channel (CHO, in presence of 30 μM CBD + THC, % of 3000 μM Mustard Oil, read-out: EMAX, CBC CRC); 58.5% on human TRPA1 channel (CHO, in presence of 100 μM CBD + THC, % of 3000 μM Mustard Oil, read-out: EMAX, CBC CRC); 37.2% at human TRPA1 channel (CHO, in presence of 300 μM CBD + THC, % of 3000 μM Mustard Oil, read-out: EMAX, CBC CRC); 10.3±1.9% and 10.31% at human TRPA1 channel (setting [2]). Moreover, the “Hill Slope” value at human TRPA1 channel (CRC of the article alone) was −0.96. The EMIN at human TRPA1 channel (setting [2]) was determined as 0.86%. Also, the “Efficacy (EMAX) of CBC” value at human TRPA1 channel (at near threshold activation by CBD+THC mixture (1 μM each), n=4) was determined as 16±1%. For the same molecule, the “Hill Slope, CBC CRC” value on human TRPA1 channel (setting [3]) was −3.56; at human TRPA1 channel (setting [4]), −1.00; on human TRPA1 channel (in presence of 1 μM CBD + THC), −1.00. For the same molecule, the “EMIN, CBC CRC” value at human TRPA1 channel (in presence of 0.1 μM CBD + THC, % of 3000 μM Mustard Oil) was 0.92%; on human TRPA1 channel (in presence of 0.3 μM CBD + THC, % of 3000 μM Mustard Oil) it was 1.42%; at human TRPA1 channel (in presence of 1 μM CBD + THC, % of 3000 μM Mustard Oil), 2.40%; on human TRPA1 channel (in presence of 3 μM CBD + THC, % of 3000 μM Mustard Oil), 15.03%; on human TRPA1 channel (in presence of 10 μM CBD + THC, % of 3000 μM Mustard Oil), 42.93%; on human TRPA1 channel (in presence of 30 μM CBD + THC, % of 3000 μM Mustard Oil) it was 47.70%. Also, the “EMIN, CBC CRC” value on human TRPA1 channel (in presence of 100 μM CBD + THC, % of 3000 μM Mustard Oil) turned out to be 37.89%; at human TRPA1 channel (in presence of 300 μM CBD + THC, % of 3000 μM Mustard Oil), 29.27%. The concentration giving a half-maximal response (EC50) on human TRPA1 channel (setting [3]) is 54.5 µM; on human TRPA1 channel (setting [4]) it was 64.1 µM; on human TRPA1 channel (in presence of 1 μM CBD + THC), 26 µM.

For the molecule `CO` [Methanol], the Emax at human TRPA1 channel (setting [1]) was 3.97%. The EMIN on human TRPA1 channel (setting [2]) is recorded as 0.95%.

In the case of `C=CCN=C=S` [Mustard Oil, Allyl isothiocyanate, reference compound], at human TRPA1 channel (CHO, CRC of the article alone, % of 3000 μM Mustard Oil), the Emax at 3000 µM was 100%. Also, on human TRPA1 channel (CRC of the article alone), the “Hill Slope” value is given as −1.91. At human TRPA1 channel (setting [2]), the EMIN came out at 1.01%.

As for `N.N.N.N.N.N.N.N.N.N.N.N.N.N.[Cl-].[Cl-].[Cl-].[Cl-].[Cl-].[Cl-].[O-2].[O-2].[Ru+3].[Ru+3].[Ru+4]` [Ruthenium Red, reference compound], the “Hill Slope” value at human TRPA1 channel (CRC of the article alone) worked out at 0.85. For the same molecule, at human TRPA1 channel (setting [2]), the EMIN is given as 0.00% and the Emax was determined as 47.50%. Moreover, on human TRPA1 channel (inhibition of TRPA1 receptors, CRC 0-10 μM (footnote: IC50 is shown)), the half-inhibitory concentration (IC50) was found to be 1.79 µM.
